Laboratory results published in patent publication US20260306641A1, “HELICASE DEGRADERS” (priority 2023, published 2026).

Key:
[1] = tested on: solid tumor cell lines (NCI-60 set); conditions: cited from earlier work
[2] = tested on: T1, human CMG helicase (hCMG); assay: hCMG ATPase activity, FP ADP^2 Transcreener assay; type: biochemical; conditions: primary FP ATPase assay
T1 construct: made in house; host or cells: High Five insect cells, baculovirus (11 viruses co-infected)
Method: The fluorescent-polarization (FP) ADP-sensing assays were performed using the Transcreener® ADP^2 FP assay kit (cat #3010-1K, Bellbrook Labs). For hCMG inhibitor screening, assays were performed at 37° C. for 1 hr in 10 μl reactions in a 384-well plate (cat. #4514, Corning) using 2 μL of hCMG (~15 fmol), 25 mM Hepes-NaOH (pH 7.5), 10 mM NaCl, 0.5 mM ATP, 10 mM magnesium acetate, 1 mM DTT, 0.1 mg/ml BSA, and DNA fork substrates. […] Selected inhibitors or samples from a chemical library were added into the reactions when conducting the screening or testing inhibitor effectiveness. The NCI Diversity Set VI chemical library was obtained from the National Cancer Institute (Bethesda, MD).
The window of sensitivity for the ADP-sensing assays is determined by setting up two 10 μL control samples without any added hCMG helicase: a Low-FP mixture (4 nM ADP Alexa Fluor-633 Tracer alone) and a High-FP mixture (4 nM ADP Alexa Fluor-633 Tracer plus patented anti-ADP^2 Antibody). The amount of ADP^2 Antibody used had to be adjusted to account for the use of 500 μM ATP in our hCMG assays, versus 10 μM ATP in enzyme reactions typically assessed with standard kits prepared by BellBrook Labs. […] This was done according to the manufacturer by performing a titration with increasing ADP^2 Antibody, fixed 4 nM ADP Alexa Fluor-633 Tracer, and 500 μM ATP to determine the ~EC80-85 for millipol (mP) changes, which determined the optimal ADP^2 Antibody concentration to use as 0.64 mg/ml (FIG. 9A). Samples are read with a Perkin Elmer Envision II plate reader with optimized Cy5 (far-red) FP-compatible mirror and cubes (cat #2100-8390, Perkin Elmer). The Low-FP sample is the least polarized and gives a low mP reading, while the High-FP sample is the most polarized and gives the highest mP reading. The difference between the Low-FP and High-FP values defines the FP assay window, which is normally in a range of 150-200 mP under ideal conditions for screening purposes. The hCMG helicase hydrolyzes ATP to ADP and decreases the mP reading within this window, with an ideal change (ΔmP) in the FP window of at least 50% to be in a readable range for inhibitor screening (as per manufacturer). Potential hCMG chemical inhibitors reverse this effect and cause the mP readings to increase.
We performed a titration with increasing and decreasing concentrations of ADP and ATP, respectively, to assess the sensitivity of the FP assay in detecting ADP production (FIG. 9B). Consistent with the stated manufacturer predictions, the assay can reliably detect 1-3% changes in ADP production (i.e., 5-15 μM ADP production) in starting concentrations of ATP of 500 μM, with a Z′ efficiency between 0.6-0.8 (determined following manufacturer protocols).
Once the hCMG enzyme reactions are complete, 10 μL of 1× Stop Solution and Detection Buffer (buffer from BellBrook Labs; containing 4 nM ADP Alexa Fluor-633 Tracer plus ADP^2 Antibody) are added to each reaction, and to the High-FP control. The Low-FP control receives 10 μL of 1× Stop Solution and Detection Buffer containing only 4 nM ADP Alexa Fluor-633 Tracer (no Antibody). Samples are incubated at 25° C. for 1 hr, then read in the plate reader. […] Plate readings from these tests of potential positive hits should be similar to that seen with the Low-FP control, or such hits may instead be false-positives.

T1 sequence (P49736 whole entry): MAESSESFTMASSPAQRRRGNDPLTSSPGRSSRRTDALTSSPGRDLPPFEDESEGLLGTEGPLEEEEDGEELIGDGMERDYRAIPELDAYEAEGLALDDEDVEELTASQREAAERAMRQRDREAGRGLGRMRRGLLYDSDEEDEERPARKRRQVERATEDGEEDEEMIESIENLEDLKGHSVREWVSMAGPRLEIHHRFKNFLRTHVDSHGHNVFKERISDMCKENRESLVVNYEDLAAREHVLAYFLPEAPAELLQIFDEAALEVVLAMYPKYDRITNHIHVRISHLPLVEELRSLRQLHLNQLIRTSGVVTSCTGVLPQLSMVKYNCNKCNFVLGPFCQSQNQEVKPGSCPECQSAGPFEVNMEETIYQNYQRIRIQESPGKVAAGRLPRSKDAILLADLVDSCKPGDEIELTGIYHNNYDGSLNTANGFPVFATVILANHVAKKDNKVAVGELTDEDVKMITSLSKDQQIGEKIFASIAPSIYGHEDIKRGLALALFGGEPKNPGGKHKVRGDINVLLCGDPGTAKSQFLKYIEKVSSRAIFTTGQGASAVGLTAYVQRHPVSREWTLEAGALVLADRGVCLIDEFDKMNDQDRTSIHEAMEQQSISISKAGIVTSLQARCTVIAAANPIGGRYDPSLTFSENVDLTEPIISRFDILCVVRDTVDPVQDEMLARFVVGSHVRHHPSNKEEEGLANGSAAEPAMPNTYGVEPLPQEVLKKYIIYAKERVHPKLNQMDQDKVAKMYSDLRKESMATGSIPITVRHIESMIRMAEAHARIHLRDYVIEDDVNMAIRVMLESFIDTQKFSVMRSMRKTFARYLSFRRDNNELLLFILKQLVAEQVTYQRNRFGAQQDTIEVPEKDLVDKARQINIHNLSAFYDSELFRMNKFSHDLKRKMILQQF
T1 sequence (P25205 whole entry, further chain): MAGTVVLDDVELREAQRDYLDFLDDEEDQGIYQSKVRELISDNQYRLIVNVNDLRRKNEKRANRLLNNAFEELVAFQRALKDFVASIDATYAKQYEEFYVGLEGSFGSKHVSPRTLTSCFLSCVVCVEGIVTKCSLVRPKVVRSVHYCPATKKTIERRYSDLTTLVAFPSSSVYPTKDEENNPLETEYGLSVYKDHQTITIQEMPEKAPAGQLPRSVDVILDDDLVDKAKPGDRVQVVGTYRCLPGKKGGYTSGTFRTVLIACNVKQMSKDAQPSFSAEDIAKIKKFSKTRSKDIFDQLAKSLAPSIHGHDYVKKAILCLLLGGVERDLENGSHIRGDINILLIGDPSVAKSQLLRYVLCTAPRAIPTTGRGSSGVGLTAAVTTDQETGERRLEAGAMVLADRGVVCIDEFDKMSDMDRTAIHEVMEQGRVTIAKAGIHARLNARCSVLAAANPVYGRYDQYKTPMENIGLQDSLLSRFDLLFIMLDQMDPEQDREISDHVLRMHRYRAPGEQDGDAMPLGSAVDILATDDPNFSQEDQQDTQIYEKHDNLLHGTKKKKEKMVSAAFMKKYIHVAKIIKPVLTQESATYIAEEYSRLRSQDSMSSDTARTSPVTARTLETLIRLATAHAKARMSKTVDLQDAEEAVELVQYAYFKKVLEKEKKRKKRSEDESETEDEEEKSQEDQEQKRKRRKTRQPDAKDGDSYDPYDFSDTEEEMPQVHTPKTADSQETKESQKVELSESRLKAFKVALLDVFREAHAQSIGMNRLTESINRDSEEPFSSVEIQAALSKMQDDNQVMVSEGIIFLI
T1 sequence (P33991 whole entry, further chain): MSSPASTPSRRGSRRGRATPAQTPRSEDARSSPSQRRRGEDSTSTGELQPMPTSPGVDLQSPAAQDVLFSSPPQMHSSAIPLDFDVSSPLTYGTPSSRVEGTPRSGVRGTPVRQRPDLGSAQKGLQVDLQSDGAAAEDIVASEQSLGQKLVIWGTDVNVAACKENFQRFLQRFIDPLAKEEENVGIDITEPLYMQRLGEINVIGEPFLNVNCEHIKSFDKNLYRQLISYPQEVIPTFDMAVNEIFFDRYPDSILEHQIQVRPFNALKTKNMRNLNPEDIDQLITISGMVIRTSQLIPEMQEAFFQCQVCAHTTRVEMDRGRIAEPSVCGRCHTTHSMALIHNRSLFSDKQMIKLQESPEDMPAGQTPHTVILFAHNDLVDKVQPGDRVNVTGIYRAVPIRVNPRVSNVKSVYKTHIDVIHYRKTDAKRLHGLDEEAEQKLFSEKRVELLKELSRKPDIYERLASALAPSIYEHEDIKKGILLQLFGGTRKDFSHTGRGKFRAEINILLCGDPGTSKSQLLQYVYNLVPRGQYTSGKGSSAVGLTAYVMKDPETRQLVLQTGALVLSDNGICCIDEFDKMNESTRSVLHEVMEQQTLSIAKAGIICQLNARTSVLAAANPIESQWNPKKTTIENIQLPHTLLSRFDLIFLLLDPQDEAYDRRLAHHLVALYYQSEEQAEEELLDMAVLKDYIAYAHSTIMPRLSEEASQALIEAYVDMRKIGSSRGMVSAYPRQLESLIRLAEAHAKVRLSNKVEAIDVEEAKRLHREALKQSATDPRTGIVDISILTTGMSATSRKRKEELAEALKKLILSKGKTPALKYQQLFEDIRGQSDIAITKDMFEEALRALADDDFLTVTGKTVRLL
T1 sequence (P33992 whole entry, further chain): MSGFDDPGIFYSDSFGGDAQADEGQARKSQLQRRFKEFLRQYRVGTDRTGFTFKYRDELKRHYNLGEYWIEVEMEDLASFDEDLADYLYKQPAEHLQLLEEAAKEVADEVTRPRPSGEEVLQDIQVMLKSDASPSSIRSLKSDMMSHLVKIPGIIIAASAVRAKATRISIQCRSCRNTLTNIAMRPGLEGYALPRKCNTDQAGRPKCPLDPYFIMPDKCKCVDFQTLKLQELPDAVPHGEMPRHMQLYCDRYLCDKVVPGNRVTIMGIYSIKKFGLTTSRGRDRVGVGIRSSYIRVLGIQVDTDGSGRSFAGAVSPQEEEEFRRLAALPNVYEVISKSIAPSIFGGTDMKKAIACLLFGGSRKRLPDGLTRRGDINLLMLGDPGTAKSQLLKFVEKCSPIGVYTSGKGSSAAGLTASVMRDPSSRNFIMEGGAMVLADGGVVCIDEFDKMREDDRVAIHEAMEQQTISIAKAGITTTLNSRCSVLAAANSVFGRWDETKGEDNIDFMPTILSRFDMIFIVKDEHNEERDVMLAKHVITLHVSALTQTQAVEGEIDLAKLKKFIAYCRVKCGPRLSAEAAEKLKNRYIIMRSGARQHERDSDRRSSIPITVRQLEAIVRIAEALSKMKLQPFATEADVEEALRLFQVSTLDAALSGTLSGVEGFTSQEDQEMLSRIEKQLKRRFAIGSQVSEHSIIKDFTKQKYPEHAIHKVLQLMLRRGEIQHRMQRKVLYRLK
T1 sequence (Q14566 whole entry, further chain): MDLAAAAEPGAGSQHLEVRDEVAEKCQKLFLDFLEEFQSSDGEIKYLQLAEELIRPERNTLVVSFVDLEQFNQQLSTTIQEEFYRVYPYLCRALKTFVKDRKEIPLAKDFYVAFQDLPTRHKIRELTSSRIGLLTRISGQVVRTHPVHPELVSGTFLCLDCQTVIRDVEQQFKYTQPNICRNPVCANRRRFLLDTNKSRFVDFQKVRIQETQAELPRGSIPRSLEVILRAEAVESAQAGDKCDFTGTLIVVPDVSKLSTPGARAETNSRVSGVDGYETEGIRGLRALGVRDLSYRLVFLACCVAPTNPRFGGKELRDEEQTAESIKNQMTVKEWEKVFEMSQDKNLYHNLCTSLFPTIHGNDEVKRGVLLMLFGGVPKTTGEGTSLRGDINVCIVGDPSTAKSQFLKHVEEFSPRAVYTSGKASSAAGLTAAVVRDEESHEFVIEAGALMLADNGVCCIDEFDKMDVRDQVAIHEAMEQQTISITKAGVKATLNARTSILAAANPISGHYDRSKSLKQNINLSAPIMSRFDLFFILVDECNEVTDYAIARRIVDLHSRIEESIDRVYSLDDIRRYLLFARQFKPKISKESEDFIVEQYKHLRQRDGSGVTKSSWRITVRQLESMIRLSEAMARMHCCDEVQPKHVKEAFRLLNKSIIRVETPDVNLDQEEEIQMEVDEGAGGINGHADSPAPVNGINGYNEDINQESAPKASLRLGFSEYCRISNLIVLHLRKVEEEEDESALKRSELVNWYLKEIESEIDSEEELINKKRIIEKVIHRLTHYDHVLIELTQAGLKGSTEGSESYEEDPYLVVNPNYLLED
T1 sequence (P33993 whole entry, further chain): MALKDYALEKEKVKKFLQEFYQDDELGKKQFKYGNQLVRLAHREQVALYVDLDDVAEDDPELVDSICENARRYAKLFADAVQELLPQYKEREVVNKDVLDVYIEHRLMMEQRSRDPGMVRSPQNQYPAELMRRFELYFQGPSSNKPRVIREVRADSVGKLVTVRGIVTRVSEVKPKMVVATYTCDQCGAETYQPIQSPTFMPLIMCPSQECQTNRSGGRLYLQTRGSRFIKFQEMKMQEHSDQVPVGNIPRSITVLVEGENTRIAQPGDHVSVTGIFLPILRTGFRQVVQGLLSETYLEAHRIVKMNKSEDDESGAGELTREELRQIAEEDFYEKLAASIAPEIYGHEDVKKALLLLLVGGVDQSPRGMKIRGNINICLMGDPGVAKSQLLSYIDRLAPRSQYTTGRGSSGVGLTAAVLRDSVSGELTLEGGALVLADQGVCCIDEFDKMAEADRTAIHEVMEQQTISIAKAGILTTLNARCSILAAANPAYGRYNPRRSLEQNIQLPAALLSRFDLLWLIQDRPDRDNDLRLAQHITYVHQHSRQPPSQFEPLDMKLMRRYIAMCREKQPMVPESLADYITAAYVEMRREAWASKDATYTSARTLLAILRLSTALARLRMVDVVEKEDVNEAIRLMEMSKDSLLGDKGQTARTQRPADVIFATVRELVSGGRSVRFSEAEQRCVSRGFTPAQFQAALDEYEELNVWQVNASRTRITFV

## CO[C@@H]1[C@@H](OC(=O)c2ccc(C)[nH]2)[C@@H](O)[C@H](Oc2ccc3c(O)c(NC(=O)c4c[nH]c(C(=O)Nc5c(O)c6ccc(O[C@@H]7OC(C)(C)[C@H](OC)[C@@H](OC(=O)c8ccc(C)[nH]8)[C@H]7O)c(C)c6oc5=O)c4C)c(=O)oc3c2C)OC1(C)C [CA1]
[1]
  growth suppression of solid tumor cell lines: sensitive to similar low micromolar concentrations
[2]
  inhibition of hCMG ATP hydrolysis: potent inhibitor of ATP hydrolysis by the hCMG

## CO[C@@H]1[C@@H](OC(N)=O)[C@@H](O)[C@H](Oc2ccc3c(O)c(NC(=O)c4ccc(O)c(CC=C(C)C)c4)c(=O)oc3c2C)OC1(C)C [novobiocin]
[1]
  growth suppression of solid tumor cell lines: largely insensitive
[2]
  inhibition of hCMG ATP hydrolysis: very little inhibitory effect on the hCMG
